Legend:
Assay in all cases: 3H-TdR incorporation at 72 hr (24 hr drug exposure, wash, 48 hr)
CCRF-CEM = assay type: cell-based; details: Homo sapiens, CCRF-CEM, read-out: IC50 in μM (3H-TdR incorporation at 72 hr) CCRF-CEM 24 h, CCRF-CEM T-cell Leukemia, 72 hr assay
Description: (§1) Exposition of 24 hr to drug, wash, incubated for another 48 hr (total of 72 hr assay)
(§2) (3H-Thymidine Incorporation Assay)

CEM/dCK- = assay type: cell-based; details: for IC50: Homo sapiens, CCRF-CEM, read-out: IC50 in μM (3H-TdR incorporation at 72 hr) CEM/dCK- 24 h, CCRF-CEM deoxycytidine kinase-deficient, 24 h drug exposure, 72 hr assay; for Factor* (Resistance Factor = Ratio of dCK- on Wild-type CCRF-CEM): ratio of IC50 CEM/dCK- to IC50 CCRF-CEM
Description: as §1, §2

MCF-7 = assay type: cell-based, Human; details: Homo sapiens, MCF7, read-out: IC50 in μM (3H-TdR incorporation at 72 hr) MCF-7 24 h, MCF-7 Human Breast Carcinoma, 72 hr assay
Description: as §1, §2

SF-268 = assay type: cell-based, Human; details: Homo sapiens, SF-268, read-out: IC50 in μM (3H-TdR incorporation at 72 hr) SF-268 24 h, SF-268 Human Central Nervous System Tumor; 24 h drug exposure, 72 hr assay
Description: as §1, §2

H-460 = assay type: cell-based, Human; details: Homo sapiens, NCI-H460, read-out: IC50 in μM (3H-TdR incorporation at 72 hr) H-460 24 h, H-460 Human Lung Carcinoma, 72 hr assay
Description: as §1, §2

## COC(OC)(OC[C@H]1OC[C@@H](n2ccc(N)nc2=O)O1)c1ccc(C)cc1 [Compound 200, 4-AMINO-1-[2- (DIMETHOXY-#P!-TOLYL- METHOXYMETHYL)- [1,3]DIOXOLAN-4-YL]- 1#H!-PYRIMIDIN-2-ONE]
CCRF-CEM
  IC50: 0.31 µM
CEM/dCK-
  IC50: 72 µM
  Factor* (Resistance Factor = Ratio of dCK- on Wild-type CCRF-CEM): 232
MCF-7
  IC50: 1.1 µM
SF-268
  IC50: 0.12 µM
H-460
  IC50: 0.3 µM

## O=C(Nc1ccn([C@@H]2CO[C@H](CO)O2)c(=O)n1)OCc1ccc([N+](=O)[O-])cc1 [Compound 182, [1-(2-HYDROXYMETHYL- [1,3]DIOXOLAN-4-YL)-2- OXO-1,2-DIHYDRO- PYRIMIDIN-4-YL]- CARBAMIC ACID 4-NITRO- BENZYL ESTER]
CCRF-CEM
  IC50: 0.047 µM
CEM/dCK-
  IC50: > 100 µM
  Factor* (Resistance Factor = Ratio of dCK- on Wild-type CCRF-CEM): >2100
MCF-7
  IC50: 0.22 µM
SF-268
  IC50: 0.21 µM
H-460
  IC50: 0.13 µM

## CCCCC[C@H]1CC[C@H](C(=O)OC[C@H]2OC[C@@H](n3ccc(N)nc3=O)O2)CC1 [Compound 240, 4-PENTYL- CYCLOHEXANECARBOXYLIC ACID 4-(4-AMINO-2-OXO- 2H-PYRIMIDIN-1-YL)- [1,3]DIOXOLAN-2-YL METHYL ESTER]
CCRF-CEM
  IC50: ≤ 0.0001 µM
CEM/dCK-
  IC50: 2.5 µM
  Factor* (Resistance Factor = Ratio of dCK- on Wild-type CCRF-CEM): ≧25000
MCF-7
  IC50: ≤ 0.0001 µM
SF-268
  IC50: ≤ 0.0001 µM
H-460
  IC50: ≤ 0.0001 µM

## CC(C)(C)OC(=O)NCCCCCC(=O)Nc1ccn([C@@H]2CO[C@H](CO)O2)c(=O)n1 [Compound 193, {5-[1-(2-HYDROXYMETHYL- [1,3]DIOXOLAN-4-YL)-2- OXO-1,2-DIHYDRO- PYRIMIDIN-4- YLCARBAMOYL]-PENTYL}- CARBAMIC ACID TERT- BUTYL ESTER]
CCRF-CEM
  IC50: 0.059 µM
CEM/dCK-
  IC50: > 100 µM
  Factor* (Resistance Factor = Ratio of dCK- on Wild-type CCRF-CEM): >1695
MCF-7
  IC50: 0.16 µM
SF-268
  IC50: 2 µM
H-460
  IC50: 0.64 µM

## Nc1ccn([C@@H]2CO[C@H](COC(=O)c3ccccc3)O2)c(=O)n1 [Compound 163, BENZOIC ACID 4-(4- AMINO-2-OXO-2H- PYRIMIDIN-1-YL)- [1,3]DIOXOLAN-2- YLMETHYL ESTER]
CCRF-CEM
  IC50: 0.0033 µM
CEM/dCK-
  IC50: 27 µM
  Factor* (Resistance Factor = Ratio of dCK- on Wild-type CCRF-CEM): 8,182
MCF-7
  IC50: 0.033 µM
SF-268
  IC50: 0.025 µM
H-460
  IC50: 0.0092 µM

## CCOC[C@H]1OC[C@@H](n2ccc(N)nc2=O)O1 [Compound 178, (S,S)-4-AMINO-1-(2′- ETHOXYMETHYL- [1,3]DIOXOLAN-4′-YL)- 1H-PYRIMIDIN-2-ONE]
CCRF-CEM
  IC50: 25 µM
CEM/dCK-
  IC50: > 100 µM
  Factor* (Resistance Factor = Ratio of dCK- on Wild-type CCRF-CEM): >4
MCF-7
  IC50: 5.8 µM
SF-268
  IC50: 41 µM
H-460
  IC50: 88 µM

## CC(C)(C)OC(=O)NCCCCCC(=O)OC[C@H]1OC[C@@H](n2ccc(N)nc2=O)O1 [Compound 194, 6-TERT!- BUTOXYCARBONYLAMINO- HEXANOIC ACID 4-(4- AMINO-2-OXO-2H- PYRIMIDIN-1-YL)- [1,3]DIOXOLAN-2- YLMETHYL ESTER]
CCRF-CEM
  IC50: 0.0024 µM
CEM/dCK-
  IC50: 10 µM
  Factor* (Resistance Factor = Ratio of dCK- on Wild-type CCRF-CEM): 4167
MCF-7
  IC50: 0.004 µM
SF-268
  IC50: 0.041 µM
H-460
  IC50: 0.011 µM

## O=C(NCNc1ccn([C@@H]2CO[C@H](CO)O2)c(=O)n1)c1ccccc1 [Compound 165, N-{[1-(2-HYDROXYMETHYL- [1,3]DIOXOLAN-4-YL)-2- OXO-1,2-DIHYDRO- PYRIMIDIN-4-YLAMINO]- METHYL}-BENZAMIDE]
CCRF-CEM
  IC50: 1.8 µM
CEM/dCK-
  IC50: > 100 µM
  Factor* (Resistance Factor = Ratio of dCK- on Wild-type CCRF-CEM): >56
MCF-7
  IC50: 10 µM
SF-268
  IC50: 16 µM
H-460
  IC50: 3.4 µM

## CC(CCCCCCc1ccccc1)C(=O)OC[C@H]1OC[C@@H](n2ccc(N)nc2=O)O1 (stereo partly drawn) [Compound 245, 2-METHYL-8-PHENYL- OCTANOIC ACID 4-(4- AMINO-2-OXO-2H- PYRIMIDIN-1-YL)- [1,3]DIOXOLAN-2-YL METHYL ESTER]
CCRF-CEM
  IC50: < 0.0001 µM
CEM/dCK-
  IC50: 0.68 µM
  Factor* (Resistance Factor = Ratio of dCK- on Wild-type CCRF-CEM): >6800
MCF-7
  IC50: < 0.0001 µM
SF-268
  IC50: < 0.0001 µM
H-460
  IC50: < 0.0001 µM

## Nc1ccn([C@@H]2CO[C@H](COC(=O)c3ccccc3Cl)O2)c(=O)n1 [Compound 206, 2-CHLORO-BENZOIC ACID 4-(4-AMINO-2-OXO-2#H!- PYRIMIDIN-1-YL)- [1,3]DIOXOLAN-2-YL METHYL ESTER]
CCRF-CEM
  IC50: 0.009 µM
CEM/dCK-
  IC50: 80 µM
  Factor* (Resistance Factor = Ratio of dCK- on Wild-type CCRF-CEM): 8,889
MCF-7
  IC50: 0.056 µM
SF-268
  IC50: 0.043 µM
H-460
  IC50: 0.012 µM
